Laboratory results as given in the supplement of paper PMC10307832.

How the values were obtained:
Test in all cases: relative viability (nuclei count vs DMSO), 5 days (fraction); higher = more cells survive
[1] = compound: CC1CC(=O)N(C2=CN=C(N=C2N1C3CCCC3)NC4=C(C=C(C=C4)C(=O)NC5CCN(CC5)C)OC)C [NPK76-II-72-1] + COc1cc2c(Oc3ccc(NC(=O)C4(C(=O)Nc5ccc(F)cc5)CC4)cc3F)ccnc2cc1OCCCN1CCOCC1 [Foretinib] (partner 0.25 µM)
How it was run: (§1)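 Cells from lung cancer lines were seeded into 1536-well plates and, one day later, dosed by pin tool. Treatments were either a single drug or a fixed dose of an anchor drug with five library-drug doses (not always all listed) in √10 steps. After 5 days, nuclei were stained in a one-step fixation (final 0.05% Triton X-100, 1% formaldehyde, 1 ug/ml Hoechst) and counted on 4× images, and relative viability is the treated-to-vehicle nuclei ratio, as the median of duplicate plates.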

BI-2536 + Tozasertib = compound: CC[C@@H]1C(=O)N(C)c2cnc(Nc3ccc(C(=O)NC4CCN(C)CC4)cc3OC)nc2N1C1CCCC1 [BI-2536] + Cc1cc(Nc2cc(N3CCN(C)CC3)nc(Sc3ccc(NC(=O)C4CC4)cc3)n2)n[nH]1 [Tozasertib] (partner 0.1 µM)
How it was run: as §1

BI-2536 + Olaparib = compound: CC[C@@H]1C(=O)N(C)c2cnc(Nc3ccc(C(=O)NC4CCN(C)CC4)cc3OC)nc2N1C1CCCC1 [BI-2536] + O=C(c1cc(Cc2n[nH]c(=O)c3ccccc23)ccc1F)N1CCN(C(=O)C2CC2)CC1 [Olaparib] (partner 8 µM)
How it was run: as §1

[2] = compound: CC1CC(=O)N(C2=CN=C(N=C2N1C3CCCC3)NC4=C(C=C(C=C4)C(=O)NC5CCN(CC5)C)OC)C [NPK76-II-72-1] + CS(=O)(=O)N1CCN(Cc2cc3nc(-c4cccc5[nH]ncc45)nc(N4CCOCC4)c3s2)CC1 [Pictilisib] (partner 1 µM)
How it was run: as §1

Cell Line | relative viability ([1]; first compound 0.01 µM) | relative viability ([1]; first compound 0.03162 µM) | relative viability ([1]; first compound 0.1 µM) | relative viability ([1]; first compound 0.3162 µM) | relative viability ([1]; first compound 1 µM) | relative viability (BI-2536 + Tozasertib; first compound 0.01 µM) | relative viability (BI-2536 + Tozasertib; first compound 0.03162 µM) | relative viability (BI-2536 + Tozasertib; first compound 0.1 µM) | relative viability (BI-2536 + Tozasertib; first compound 0.3162 µM) | relative viability (BI-2536 + Tozasertib; first compound 1 µM) | relative viability (BI-2536 + Olaparib; first compound 0.03162 µM) | relative viability (BI-2536 + Olaparib; first compound 0.1 µM) | relative viability (BI-2536 + Olaparib; first compound 0.3162 µM) | relative viability (BI-2536 + Olaparib; first compound 1 µM) | relative viability ([2]; first compound 0.01 µM) | relative viability ([2]; first compound 0.03162 µM) | relative viability ([2]; first compound 0.1 µM) | relative viability ([2]; first compound 0.3162 µM) | relative viability ([2]; first compound 1 µM) | relative viability (BI-2536 + Olaparib; first compound 0.01 µM)
NCI-H2342 | 0.948 | 1.1 | 1.09 | 0.88 | 1.15 | 0.449 | 0.508 | 0.468 | 0.378 | 0.294 | 0.424 | 0.367 | 0.319 | 0.26 |  |  |  |  |  | 
SK-MES-1 | 0.975 | 0.957 | 0.877 | 0.808 | 0.912 | 0.956 | 0.801 | 0.191 | 0.151 | 0.172 | 0.656 | 0.199 | 0.165 | 0.177 | 0.429 | 0.384 | 0.295 | 0.376 | 0.318 | 0.72
HCC-366 | 0.929 | 0.953 | 0.906 | 0.944 | 0.951 | 0.119 | 0.169 | 0.115 | 0.038 | 0.0412 | 0.368 | 0.21 | 0.0235 | 0.0223 | 0.117 | 0.117 | 0.128 | 0.196 | 0.186 | 0.323
201T | 1.06 | 1.12 | 1.15 | 1.06 | 1.27 | 0.996 | 0.925 | 0.93 | 0.41 | 0.388 | 0.796 | 0.853 | 0.382 | 0.205 | 0.642 | 0.618 | 0.66 | 0.7 | 0.677 | 0.879
HCC-827 | 1.01 | 1.06 | 0.912 | 1.03 | 1.12 | 0.45 | 0.414 | 0.428 | 0.376 | 0.308 | 0.611 | 0.531 | 0.214 | 0.194 | 0.954 | 1.03 | 0.98 | 0.929 | 1.08 | 0.693
NCI-H647 | 1.12 | 1.19 | 1.35 | 1.04 | 1.19 | 0.34 | 0.433 | 0.209 | 0.132 | 0.103 | 0.281 | 0.107 | 0.0584 | 0.0662 | 0.38 | 0.427 | 0.401 | 0.406 | 0.466 | 0.481
NCI-H2023 | 0.659 | 0.797 |  | 0.624 | 1.07 | 0.389 | 0.461 | 0.234 | 0.11 | 0.108 | 0.338 | 0.13 | 0.0876 | 0.0937 | 0.264 | 0.227 | 0.244 | 0.257 | 0.253 | 0.426
NCI-H520 | 0.648 | 0.854 | 0.674 | 0.867 | 0.794 | 0.429 | 0.424 | 0.365 | 0.395 | 0.361 | 0.217 | 0.228 | 0.162 | 0.168 | 0.234 | 0.267 | 0.374 | 0.267 | 0.291 | 0.284
RERF-LC-KJ | 0.768 | 0.899 | 0.894 | 0.808 | 0.884 | 0.496 | 0.405 | 0.275 | 0.224 | 0.226 | 0.571 | 0.24 | 0.201 | 0.223 | 0.491 | 0.543 | 0.546 | 0.482 | 0.492 | 0.901
A-427 | 0.923 | 1.04 | 1.08 | 1.14 | 1.07 | 0.187 | 0.211 | 0.189 | 0.15 | 0.146 | 0.593 | 0.385 | 0.191 | 0.176 | 0.747 | 0.796 | 0.685 | 0.632 | 0.706 | 0.727
NCI-H441 | 0.931 | 1.09 | 0.785 | 0.823 | 1.16 | 0.557 | 0.352 | 0.274 | 0.293 | 0.31 | 0.354 | 0.171 | 0.148 | 0.148 | 0.419 | 0.507 | 0.605 | 0.471 | 0.425 | 0.522
NCI-H1703 | 0.363 |  | 0.316 | 0.35 | 0.343 |  |  |  |  |  | 0.315 | 0.209 | 0.102 | 0.111 | 0.257 | 0.224 | 0.298 | 0.283 | 0.254 | 0.426
NCI-H1792 |  |  |  |  |  |  |  |  |  |  | 0.374 | 0.316 | 0.0436 | 0.0344 | 0.353 | 0.285 | 0.26 | 0.29 | 0.286 | 0.543
Calu-6 | 0.833 | 0.991 | 0.772 | 0.823 | 0.913 |  |  |  |  |  | 0.524 | 0.243 | 0.0982 | 0.0892 | 0.894 | 1.01 | 0.953 | 0.757 | 1.05 | 0.533
